# Results reported in PubChem BioAssay AID1918937 (Molecular Pharmacology Branch, DTP, NCI, 2023).
# “And” between values parts separate entries of the source, which are not always exact repeats. Equal entries are not always repeated.
# System: 521955-158-R2-J5-PDC complex spheroid viability
# Experiment: Anticancer human tumor 521955-158-R2-J5-PDC patient-derived pancreatic carcinoma cell line growth inhibition
# Conditions: for viability, T/C: stronger effect = lower value
# In short: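 Drug combinations with the LSD1 inhibitor iadademstat tested on tumor cells co-cultured as spheroids with endothelial cells and mesenchymal stem cells. Concentrations descended in half-log increments from clinical Cmax or 10 microM.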
# [1] = curve of first compound, second compound 0.1 µM
# [2] = curve of first compound, second compound 0.316 µM
# [3] = curve of first compound, second compound 1 µM
# [4] = curve of first compound, second compound 3.16 µM
# [5] = curve of first compound, second compound 10 µM
# [6] = second compound 0.1 µM, first compound 0.0316 µM
# [7] = second compound 0.1 µM, first compound 0.1 µM
# [8] = second compound 0.316 µM, first compound 0.0316 µM
# [9] = second compound 0.316 µM, first compound 0.1 µM
# [10] = second compound 1 µM, first compound 0.0316 µM
# [11] = second compound 1 µM, first compound 0.1 µM
# [12] = second compound 3.16 µM, first compound 0.0316 µM
# [13] = second compound 3.16 µM, first compound 0.1 µM
# [14] = second compound 10 µM, first compound 0.0316 µM
# [15] = second compound 10 µM, first compound 0.1 µM
# 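Also: spheroids exposed to agents for seven days.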
# 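For viability, T/C in this document: percent of DMSO vehicle control luminescence viability.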
smiles,measurement,setting,value
NS(=O)(=O)OCC1CC(n2ccc3c(NC4CCc5ccccc54)ncnc32)CC1O (configuration not stated) + NC1CCC(NC2CC2c2ccccc2)CC1,IC50,[1],28.1 nM
same,IC50,[2],31.8 nM
same,IC50,[3],26.3 nM
same,IC50,[4],25.8 nM
same,IC50,[5],25.4 nM
same,"viability, T/C","second compound 0.1 µM, first compound 0.00949 µM",77.7%
same,"viability, T/C","second compound 0.1 µM, first compound 0.03 µM",49%
same,"viability, T/C","second compound 0.1 µM, first compound 0.0949 µM",26.5%
same,"viability, T/C","second compound 0.1 µM, first compound 0.3 µM",16.8%
same,"viability, T/C","second compound 0.1 µM, first compound 0.949 µM",13.8%
same,"viability, T/C","second compound 0.1 µM, first compound 3 µM",7.17%
same,"viability, T/C","second compound 0.316 µM, first compound 0.00949 µM",69.6%
same,"viability, T/C","second compound 0.316 µM, first compound 0.03 µM",51.4%
same,"viability, T/C","second compound 0.316 µM, first compound 0.0949 µM",28.9%
same,"viability, T/C","second compound 0.316 µM, first compound 0.3 µM",15.1%
same,"viability, T/C","second compound 0.316 µM, first compound 0.949 µM",10.3%
same,"viability, T/C","second compound 0.316 µM, first compound 3 µM",6.4%
same,"viability, T/C","second compound 1 µM, first compound 0.00949 µM",71.8%
same,"viability, T/C","second compound 1 µM, first compound 0.03 µM",47.3%
same,"viability, T/C","second compound 1 µM, first compound 0.0949 µM",25.5%
same,"viability, T/C","second compound 1 µM, first compound 0.3 µM",13.7%
same,"viability, T/C","second compound 1 µM, first compound 0.949 µM",11.1%
same,"viability, T/C","second compound 1 µM, first compound 3 µM",7.37%
same,"viability, T/C","second compound 3.16 µM, first compound 0.00949 µM",70.7%
same,"viability, T/C","second compound 3.16 µM, first compound 0.03 µM",47.5%
same,"viability, T/C","second compound 3.16 µM, first compound 0.0949 µM",24.4%
same,"viability, T/C","second compound 3.16 µM, first compound 0.3 µM",15.6%
same,"viability, T/C","second compound 3.16 µM, first compound 0.949 µM",12.2%
same,"viability, T/C","second compound 3.16 µM, first compound 3 µM",7.55%
same,"viability, T/C","second compound 10 µM, first compound 0.00949 µM",74.9%
same,"viability, T/C","second compound 10 µM, first compound 0.03 µM",46.5%
same,"viability, T/C","second compound 10 µM, first compound 0.0949 µM",23.6%
same,"viability, T/C","second compound 10 µM, first compound 0.3 µM",15.3%
same,"viability, T/C","second compound 10 µM, first compound 0.949 µM",9.78%
same,"viability, T/C","second compound 10 µM, first compound 3 µM",5.36%
COc1cc(Nc2ncc3c(n2)-c2ccc(Cl)cc2C(c2c(F)cccc2OC)=NC3)ccc1C(=O)O,"viability, T/C",compound 0.00316 µM,46.9% and 75.9%
same,"viability, T/C",compound 0.01 µM,56.3% and 81.6%
same,"viability, T/C",compound 0.0316 µM,57.4% and 74.7%
same,"viability, T/C",compound 0.1 µM,46.7% and 67.2%
same,"viability, T/C",compound 0.316 µM,49% and 61.8%
same,"viability, T/C",compound 1 µM,42% and 61.7%
same,IC50,curve of compound,154 nM and > 1000 nM
COc1ccc([C@@H](O)c2cc(-c3ncnc4cc(N5CCOCC5)ccc34)c(F)cc2Cl)nn1 + NC1CCC(NC2CC2c2ccccc2)CC1,IC50,[1],838 nM
same,IC50,[2],973 nM
same,IC50,[3],640 nM
same,IC50,[4],795 nM
same,IC50,[5],742 nM
same,"viability, T/C",[6],81.5%
same,"viability, T/C",[7],80.9%
same,"viability, T/C","second compound 0.1 µM, first compound 0.316 µM",66.5%
same,"viability, T/C","second compound 0.1 µM, first compound 1 µM",42.9%
same,"viability, T/C","second compound 0.1 µM, first compound 3.16 µM",38.6%
same,"viability, T/C","second compound 0.1 µM, first compound 10 µM",22.7%
same,"viability, T/C",[8],74.4%
same,"viability, T/C",[9],72.3%
same,"viability, T/C","second compound 0.316 µM, first compound 0.316 µM",65.3%
same,"viability, T/C","second compound 0.316 µM, first compound 1 µM",45%
same,"viability, T/C","second compound 0.316 µM, first compound 3.16 µM",38.8%
same,"viability, T/C","second compound 0.316 µM, first compound 10 µM",22.4%
same,"viability, T/C",[10],77.4%
same,"viability, T/C",[11],81.8%
same,"viability, T/C","second compound 1 µM, first compound 0.316 µM",57.8%
same,"viability, T/C","second compound 1 µM, first compound 1 µM",42.6%
same,"viability, T/C","second compound 1 µM, first compound 3.16 µM",30.9%
same,"viability, T/C","second compound 1 µM, first compound 10 µM",19.7%
same,"viability, T/C",[12],80.7%
same,"viability, T/C",[13],80.7%
same,"viability, T/C","second compound 3.16 µM, first compound 0.316 µM",65%
same,"viability, T/C","second compound 3.16 µM, first compound 1 µM",45.8%
same,"viability, T/C","second compound 3.16 µM, first compound 3.16 µM",29.1%
same,"viability, T/C","second compound 3.16 µM, first compound 10 µM",19.3%
same,"viability, T/C",[14],80%
same,"viability, T/C",[15],79.5%
same,"viability, T/C","second compound 10 µM, first compound 0.316 µM",64.5%
same,"viability, T/C","second compound 10 µM, first compound 1 µM",42.2%
same,"viability, T/C","second compound 10 µM, first compound 3.16 µM",30.5%
same,"viability, T/C","second compound 10 µM, first compound 10 µM",15.4%
CC[C@@]1(O)C(=O)OCc2c1cc1n(c2=O)Cc2cc3c(CN(C)C)c(O)ccc3nc2-1 + NC1CCC(NC2CC2c2ccccc2)CC1,IC50,[1],4.87 nM
same,IC50,[2],4.89 nM
same,IC50,[3],4.35 nM
same,IC50,[4],4.78 nM
same,IC50,[5],4.55 nM
same,"viability, T/C","second compound 0.1 µM, first compound 0.000316 µM",100%
same,"viability, T/C","second compound 0.1 µM, first compound 0.001 µM",104%
same,"viability, T/C","second compound 0.1 µM, first compound 0.00316 µM",72.3%
same,"viability, T/C","second compound 0.1 µM, first compound 0.01 µM",12.8%
same,"viability, T/C",[6],7.11%
same,"viability, T/C",[7],5.58%
same,"viability, T/C","second compound 0.316 µM, first compound 0.000316 µM",101%
same,"viability, T/C","second compound 0.316 µM, first compound 0.001 µM",97.2%
same,"viability, T/C","second compound 0.316 µM, first compound 0.00316 µM",72.9%
same,"viability, T/C","second compound 0.316 µM, first compound 0.01 µM",12.2%
same,"viability, T/C",[8],6.01%
same,"viability, T/C",[9],4.82%
same,"viability, T/C","second compound 1 µM, first compound 0.000316 µM",97.3%
same,"viability, T/C","second compound 1 µM, first compound 0.001 µM",97.5%
same,"viability, T/C","second compound 1 µM, first compound 0.00316 µM",64.7%
same,"viability, T/C","second compound 1 µM, first compound 0.01 µM",11.7%
same,"viability, T/C",[10],6.84%
same,"viability, T/C",[11],5.45%
same,"viability, T/C","second compound 3.16 µM, first compound 0.000316 µM",96.7%
same,"viability, T/C","second compound 3.16 µM, first compound 0.001 µM",94.9%
same,"viability, T/C","second compound 3.16 µM, first compound 0.00316 µM",70.5%
same,"viability, T/C","second compound 3.16 µM, first compound 0.01 µM",13.2%
same,"viability, T/C",[12],6.25%
same,"viability, T/C",[13],4.49%
same,"viability, T/C","second compound 10 µM, first compound 0.000316 µM",104%
same,"viability, T/C","second compound 10 µM, first compound 0.001 µM",105%
same,"viability, T/C","second compound 10 µM, first compound 0.00316 µM",67%
same,"viability, T/C","second compound 10 µM, first compound 0.01 µM",13.1%
same,"viability, T/C",[14],6.18%
same,"viability, T/C",[15],4.49%
